Three molecules from PMC11481179, “Development and Application of Reversible and Irreversible Covalent Probes for Human and Mouse Cathepsin‐K Activity Detection, Revealing Nuclear Activity” (Advanced Science, 2024) can be followed below.

For data set [1], the system named is U-2 OS cells. Description: Cell viability assay (methylene blue). It is filed as cell-based, human. As to conditions: 48 h incubation. How it is done:
U-2 OS, U-87 MG, and enriched monocyte cells were grown at 370 C with 5% of CO2 in the
respective medium as described previously. Cells were seeded (1500 cells/well in 96 wells
plate) one day before the incubation with indicated probe or inhibitor at various concentrations.
After 48 h cells were fixed, and viability was measured by quantitative colorimetric assay using
methylene blue according to the procedure reported by Ben-Bassat et al. The data were
expressed as a percentage of control; data represent the mean of 2 experiments with triplicates
for each treatment (± standard deviation).
Fluorescent imaging of CTSK activity in lung tissue: Freshly resected human lung cancer and
normal lung tissues or mouse normal lung and primary lung cancer were embedded in OCT,
frozen in liquid nitrogen, and kept at - 80° C. Tissues were sectioned into 10 μm thick slices
using a cryostat (Leica). The slides were defrosted and washed with 1X PBS. Then the slides
were pretreated with DMSO or GD30 (5 µM) in buffer acetate for 1 h at 37° C. Afterward,
GD32 (0.75uM) or DMSO in buffer acetate were applied to the slides for 4 h at 37° C. Three
short washes with 1X PBS were done and the slides were left in 1X PBS for overnight
incubation at 4° C. The next day, slides were mounted with DAPI-Fluoromount-G® before
visualization by confocal microscopy. Olympus FV10i was used for human samples, whereas
Zeiss was used for mouse samples.
Details of the synthesis of the compounds
Synthesis of Compound (2)

Data set [2] relates to primary human osteoclasts (enriched monocytic cells). Description: Cell viability assay (methylene blue). It is filed as cell-based. The settings on record: 48 h incubation. The method, then: Figure 5 Labeling of endogenous cathepsin K in intact human osteoclast cells. Enriched human monocytes from PBMC were isolated from healthy donors’ blood, cells were treated with MCSF and RANKL or MCSF alone as indicated for 14 days. a–c) Osteoclasts were treated with vehicle (DMSO) or inhibitors ODN or GD30 [3 µM] in a culture medium for 2 h, followed by incubation with GD32 or GD42 for 8 h or GB123 for 2 h similar to as described in Figure 4. (a, b) Confocal fluorescent microscopy of GD32 and GB123 treated cells after fixation. c) Live cell imaging with GD42. d) SDS PAGE of the human osteoclasts and macrophages incubated with DMSO, ODN or GD30 [5 µM] followed by incubation with GD32 or GD42 [5 µM] for 8 h. e) The same gel was analyzed by western blot with an anti‐CTSK antibody. […] Red fluorescence marks cathepsin activity (ABPs) and blue fluorescence marks nucleus (DAPI). g–i) Cell viability assay. […] After 48 h incubation cells were fixed, and viability was measured by methylene blue. The data were expressed as a percentage of control; data represent the mean of two experiments with triplicates for each treatment (± Standard Deviation). […]
with 5µM GD32 for 24 h prior to the cell lysis. Cell lysates were prepared and analyzed as […]
analyzed as previously described. […]
After 48 h cells were fixed, and viability was measured by quantitative colorimetric assay using […]

Data set [3] deals with CTSB (Homo sapiens, UniProt P07858). Description: In vitro kinetic evaluation of cathepsin inhibition, fluorescent substrate Z-FR-AMC. The format is biochemical. As to conditions: for mode of inhibition: CTSB; for Ki: CTSB 5 nM, pH 6, 37 °C. How it is done:
(§1) used for TLC. Phosphate Buffer Saline (PBS) was purchased from Biological Industries (pH = […]
(§2) 7.4) and was used as a buffer system in all experiments if not indicated otherwise. […]
Recombinant human CTSB, CTSK, CTSL, and CTSS were supplied by B. Turk (J. […]
(§3) In vitro kinetic evaluation of labeling recombinant cathepsins:
(§4) Reactions were monitored for 30 min at 37° C in 96-well black flat-bottom microplates […]
(§5) (Greiner, Germany) using Tecan INFINITE M1000 pro plate reader (Tecan, Switzerland), […]
(§6) substrates Z-RR-AMC (CTSL) or Z-FR-AMC (CTSS, CTSB and CTSK), and excitation and […]
(§7) emission wavelengths of 370 and 460 nm, respectively. Cathepsin concentrations in the assay were 0.4 nM (CTSK) or 5 nM (CTSS, CTSB, and CTSL). The buffer was 100 mM Na2HPO4/NaH2PO4, 50 mM NaCl, 5 mM DTT, 0,1% Peg-6000, pH 6. For irreversible inhibitors, reaction data were fitted to the one-phase association formula in GraphPad Prism 9 software: Y=Y0 + (Plateau-Y0)*(1-exp(-K*X)) where in this case Y0 and Y represent fluorescence signal at times 0 and t, respectively, K represent the observed reaction rate kobs and X the inhibitor concentration. Inactivation rates at each inhibitor concentration were obtained by subtracting the inactivation observed in the control sample: kobs – kctrl. The maximal rate of inactivation (kinact) was obtained as the asymptote from equation Y = kinact*X/(Kiapp + X) where X is inhibitor concentration, Y is the observed inactivation rate for each X, and Kiapp is the apparent inhibition constant. Ki values were calculated from IC50 or from Kiapp using formulas Ki = Kiapp / (1 + Km/S) and IC50 = E0/2 + Kiapp, where Km stands for Michalis-Menten constant, S for substrate concentration and E0 for cathepsin concentration.
(§8) The highest inhibitor concentrations in the assay were 50 µM. Measurements were performed in several independent duplicates. Average values are presented with standard deviations. […]
(§9) µM) were pretreated with different concentrations of probes (GD32, GD36, GD37, or GD42)

For data set [4], the target named is CTSL (Homo sapiens, UniProt P07711). Description: In vitro kinetic evaluation of cathepsin inhibition, fluorescent substrate Z-RR-AMC. It is filed as biochemical. The settings on record: for mode of inhibition: CTSL; for Ki: CTSL 5 nM, pH 6, 37 °C. How it is done:
as §1, §2
Recombinant human CTSB, CTSK, CTSL, and CTSS were supplied by B. Turk (J.
Stefan Institute).[1] […]
as §3, §4, §5, §6, §7, §8, §9

As usually defined, the Ki is a dissociation constant, usually derived from enzyme kinetics or from competition with a known ligand. Low readings indicate higher affinity, high ones lower affinity.

CTSL, sequence (P07711 114-333): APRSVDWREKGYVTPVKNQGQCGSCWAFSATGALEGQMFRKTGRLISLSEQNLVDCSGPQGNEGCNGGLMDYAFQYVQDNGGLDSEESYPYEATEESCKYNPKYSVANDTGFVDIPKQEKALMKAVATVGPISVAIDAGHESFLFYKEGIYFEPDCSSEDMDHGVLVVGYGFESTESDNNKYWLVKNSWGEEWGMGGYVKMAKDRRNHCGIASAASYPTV

On to `C#CCNC(=O)[C@H](CC(C)C)N[C@@H](c1ccc(-c2ccc(S(=O)(=O)CCNC(=O)OC(C)(C)C)cc2)cc1)C(F)(F)F` [GD30], for which the cytotoxicity result in data set [1] and in data set [2] was “No toxicity” throughout.
With `C#CCNC(=O)[C@H](CC(C)C)N[C@@H](c1ccc(-c2ccc(S(=O)(=O)CCNC(=O)CCCCC[N+]3=C(/C=C/C=C/C=C4/N(C)c5ccc(S(=O)(=O)O)cc5C4(C)C)C(C)(C)c4cc(S(=O)(=O)O)ccc43)cc2)cc1)C(F)(F)F` [GD32], the cytotoxicity result in data set [1] and in data set [2] was “No toxicity” throughout. Besides, the mode of inhibition entry in data set [3] and in data set [4] was “Reversible” each time. In addition, the Ki worked out at 9.4 µM in data set [3] and 20 µM in data set [4].
As for `CC(C)C[C@H](N[C@@H](c1ccc(-c2ccc(S(=O)(=O)CCNC(=O)CCCCC[N+]3=C(/C=C/C=C/C=C4/N(C)c5ccc(S(=O)(=O)O)cc5C4(C)C)C(C)(C)c4cc(S(=O)(=O)O)ccc43)cc2)cc1)C(F)(F)F)C(=O)NC1(C#N)CC1` [GD37], the mode of inhibition entry in data set [3] and in data set [4] was “Reversible” throughout. Besides, the Ki was 5.9 µM in data set [3] and 1.2 µM in data set [4].
